# Test results reported in patent US10130633B2, “Compounds” (BAYER PHARMA AKTIENGESELLSCHAFT, priority 2013, dated 2018).
# “And” between values parts separate entries of the source, which are not always exact repeats. Identical values can stand only once. Counter-ions that a name gives are not always drawn. Like-named read-outs stand apart in the source and are kept apart here.
# Experiments:
# [1] = Solubility in buffer / aqueous media; assay type: physicochemical; settings: pH 6.5, aqueous buffer; buffer at pH6.5
# Text: Some of the compounds of general formula (I) show low solubility in aqueous media and organic solvents. This can affect the possibility to assess the activity of such compounds with the described assays. […] Therefore, the high IC50 value of the compound might be a result of the low solubility.
# [2] = system: constitutive active colorectal cancer cell (CRC) Wnt pathway; test: HCT116 TOPFlash cellular reporter assay (Super TopFlash luciferase), constitutive active Wnt pathway; assay type: cell-based; settings: for IC50: HCT116 TOP reporter cells, 36 hours incubation, luciferase expression
# Description: In order to discover and characterize small molecules which inhibit the constitutive active colorectal cancer cell (CRC) Wnt pathway, a cellular reporter assay was employed. […] Stable transfectants were generated by cotransfection with pcDNA3 and selection of stable transfected cells with 1 mg/ml G418.
# wildtype Wnt pathway = test: HEK293 TOP reporter assay, wildtype Wnt pathway stimulated with Wnt-3a; assay type: cell-based, human
# Description: (§1) Measurement of luciferase expression was done as described for the constitutive active Wnt assay.
# In order to discover and characterize small molecules which inhibit the wildtype Wnt pathway, a cellular reporter assay was employed. […] Stable transfectants were generated by selection with 300 μg/ml Hygromycin.
# [3] = system: HEK293 FOP control reporter cell line; test: HEK293 FOP control reporter assay; assay type: cell-based, human; settings: read-out: HEK FOP IC50
# Description: as §1
# (§2) In a parallel approach, HEK293 cells were cotransfected with the FOP control vector and pcDNA3. The FOP vector is identical to the TOP construct, but it contains instead of functional TCF elements a randomized, non-functional sequence. For this transfection a stable transfected cell line was generated as well, based on selection with Geneticin (1 mg/ml).
# [4] = system: HCT116 FOP control reporter cell line; test: HCT116 FOPFlash control reporter assay (FOP control vector, non-functional TCF elements); assay type: cell-based; settings: HCT116 FOP control reporter cells, 36 hours incubation, luciferase expression
# Text: as §2, with “HCT116” for “HEK293”, “well.” for “well, based on selection with Geneticin (1 mg/ml).”
# [5] = Homo sapiens, HEK293, 16 h; read-out: HEK TOP OncoFlash IC50
# [6] = Homo sapiens, HEK293, 16 h, read-out: HEK TOP OncoFlash IC50
Compound,solubility [1],IC50 value in the HCT116 TOPFlash assay (in words) ([2]; might be a result of the low solubility),IC50 (wildtype Wnt pathway; [5]),"IC50 ([3]; Homo sapiens, HEK293, 16 h)","IC50 ([4]; Homo sapiens, HCT-116, 36 h)","IC50 ([2]; Homo sapiens, HCT-116, 36 h)",IC50 (wildtype Wnt pathway; [6]),"IC50 (wildtype Wnt pathway; HEK293 TOP cells, EC50 concentration of recombinant Wnt-3a, 16 hours; read-out: HEK TOP OncoFlash IC50)","IC50 ([3]; HEK293 FOP control cells, EC50 concentration of recombinant Wnt-3a, 16 hours)",IC50 [4],IC50 [2]
"COc1ccc(C(=O)Nc2nnc(-c3ccccc3)s2)cc1NC(=O)CN1CCOCC1 [4-methoxy-3-[(morpholin-4-ylacetyl)amino]-N-(5-phenyl-1,3,4-thiadiazol-2-yl)benzamide]",< 0.1 µg/mL and < 0.22 µM,higher than expected,,,,,,,,,
"O=C(CN1CCOCC1)Nc1cc(NC(=O)c2ccc(-c3ccccc3)nc2)ccc1OC(F)(F)F [Example 33, N-{3-[(morpholin-4-ylacetyl)amino]-4-(trifluoromethoxy)phenyl}-6-phenylnicotinamide]",,,0.37 µM,7.4 µM,≥ 50 µM,0.111 µM,,,,,
"CN1CCN(CC(=O)Nc2cc(C(=O)Nc3nnc(-c4ccccc4)s3)ccc2OC(F)F)CC1 [Example 40, 4-(difluoromethoxy)-3-{[(4-methylpiperazin-1-yl)acetyl]amino}-N-(5-phenyl-1,3,4-thiadiazol-2-yl)benzamide]",,,0.53 µM,≥ 50 µM,≥ 50 µM,0.0524 µM,,,,,
"CC(C(=O)Nc1cc(C(=O)Nc2nnc(-c3ccccc3)s2)ccc1OC(F)F)N1CCN(C)CC1 (stereo not drawn) [Example 42, 4-(difluoromethoxy)-3-{[2-(4-methylpiperazin-1-yl)propanoyl]amino}-N-(5-phenyl-1,3,4-thiadiazol-2-yl)benzamide trifluoroacetate (1:1)]",,,,≥ 50 µM,≥ 50 µM,0.242 µM,0.106 µM,,,,
"COCc1ccc(C(=O)Nc2nnc(-c3ccccc3)s2)cc1NC(=O)C1(N2CCOCC2)CC1 [Example 43, 4-(methoxymethyl)-3-({[1-(morpholin-4-yl)cyclopropyl]carbonyl}amino)-N-(5-phenyl-1,3,4-thiadiazol-2-yl)benzamide]",,,0.11 µM,≥ 50 µM,≥ 50 µM,0.0491 µM,,,,,
"COCc1ccc(C(=O)Nc2nnc(-c3ccccc3)s2)cc1NC(=O)C1(N2CCN(C)CC2)CC1 [Example 45, 4-(methoxymethyl)-3-({[1-(4-methylpiperazin-1-yl)cyclopropyl]carbonyl}amino)-N-(5-phenyl-1,3,4-thiadiazol-2-yl)benzamide hydrochloride (1:1)]",,,,≥ 50 µM,26.5 µM,0.198 µM,0.19 µM,,,,
"COCc1ccc(C(=O)Nc2nnc(-c3ccccc3)s2)cc1NC(=O)CN1CCN(C)CC1 [Example 46, 4-(methoxymethyl)-3-{[(4-methylpiperazin-1-yl)acetyl]amino}-N-(5-phenyl-1,3,4-thiadiazol-2-yl)benzamide]",,,0.69 µM,≥ 50 µM,≥ 50 µM,0.164 µM,,,,,
"CS(=O)(=O)Cc1ccc(C(=O)Nc2nnc(-c3ccccc3)s2)cc1NC(=O)C1(N2CCOCC2)CC1 [Example 47, 4-[(methylsulfonyl)methyl]-3-({[1-(morpholin-4-yl)cyclopropyl]carbonyl}amino)-N-(5-phenyl-1,3,4-thiadiazol-2-yl)benzamide]",,,0.09 µM,≥ 50 µM,≥ 50 µM,0.0398 µM,,,,,
"CS(=O)(=O)Cc1ccc(C(=O)Nc2nnc(-c3ccccc3)s2)cc1NC(=O)C1(N2CCN(C3CC3)CC2)CC1 [Example 48, 3-({[1-(4-cyclopropylpiperazin-1-yl)cyclopropyl]carbonyl}amino)-4-[(methylsulfonyl)methyl]-N-(5-phenyl-1,3,4-thiadiazol-2-yl)benzamide]",,,0.13 µM,≥ 50 µM,≥ 50 µM,0.0737 µM,,,,,
"CN1CCN(CC(=O)Nc2cc(C(=O)Nc3nnc(-c4ccccc4)s3)ccc2OC(F)(F)F)CC1 [Example 54, 3-{[(4-methylpiperazin-1-yl)acetyl]amino}-N-(5-phenyl-1,3,4-thiadiazol-2-yl)-4-(trifluoromethoxy)benzamide]",,,0.13 µM,≥ 50 µM,28 µM,0.104 µM,,,,,
"NC(=O)c1ccc(C(=O)Nc2nnc(-c3ccccc3)s2)cc1NC(=O)C1(N2CCOCC2)CC1 [Example 56, 2-({[1-(morpholin-4-yl)cyclopropyl]carbonyl}amino)-N-4-(5-phenyl-1,3,4-thiadiazol-2-yl)terephthalamide]",,,0.19 µM,≥ 50 µM,≥ 50 µM,0.104 µM,,,,,
"COc1ccc(NC(=O)c2ccc(-c3ccccc3F)nc2)cc1NC(=O)C1(N2CCOCC2)CC1 [Example 62, 6-(2-fluorophenyl)-N-[4-methoxy-3-({[1-(morpholin-4-yl)cyclopropyl]carbonyl}amino)phenyl]nicotinamide]",,,0.18 µM,≥ 50 µM,≥ 50 µM,0.0673 µM,,,,,
"COc1ccc(C(=O)Nc2ccc(-c3ccccc3F)nc2)cc1NC(=O)C1(N2CCOCC2)CC1 [Example 80, N-[6-(2-fluorophenyl)pyridin-3-yl]-4-methoxy-3-({[1-(morpholin-4-yl)cyclopropyl]carbonyl}amino)benzamide]",,,0.15 µM,10 µM,≥ 50 µM,0.027 µM,,,,,
"COc1ccc(C(=O)Nc2ccc(-c3ccccc3)nc2)cc1NC(=O)C1(N2CCOCC2)CC1 [Example 81, 4-methoxy-3-({[1-(morpholin-4-yl)cyclopropyl]carbonyl}amino)-N-(6-phenylpyridin-3-yl)benzamide]",,,0.015 µM,≥ 50 µM,≥ 50 µM,0.0231 µM,,,,,
"COC(=O)c1ccc(C(=O)Nc2nnc(-c3ccccc3)s2)cc1NC(=O)CN1CCN(C)CC1 [Example 105, methyl 2-{[(4-methylpiperazin-1-yl)acetyl]amino}-4-[(5-phenyl-1,3,4-thiadiazol-2-yl)carbamoyl]benzoate]",,,0.3 µM,≥ 50 µM,≥ 50 µM,0.064 µM,,,,,
"Nc1ccc(-c2ccc(NC(=O)c3ccc(OC(F)(F)F)c(NC(=O)CN4CCOCC4)c3)cn2)cc1 [Example 126, N-[6-(4-aminophenyl)pyridin-3-yl]-3-[(morpholin-4-ylacetyl)amino]-4-(trifluoromethoxy)benzamide]",,,0.036 µM,≥ 50 µM,≥ 50 µM,0.0525 µM,,,,,
"CN1CCN(CC(=O)Nc2cc(C(=O)Nc3ccc(-c4ccccc4)cn3)ccc2OC(F)(F)F)CC1 [Example 132, 3-{[(4-methylpiperazin-1-yl)acetyl]amino}-N-(5-phenylpyridin-2-yl)-4-(trifluoromethoxy)benzamide formiate]",,,,,,,,0.07 µM,11 µM,20 µM,0.0355 µM
"O=C(CN1CCOCC1)Nc1cc(C(=O)Nc2ccc(-c3ccccc3F)nc2)ccc1OC1CC1 [Example 133, 4-(cyclopropyloxy)-N-[6-(2-fluorophenyl)pyridin-3-yl]-3-[(morpholin-4-ylacetyl)amino]benzamide]",,,0.13 µM,≥ 50 µM,≥ 50 µM,0.0546 µM,,,,,
"O=C(Nc1ccc(-c2ccccc2F)nc1)c1ccc(OC2CC2)c(NC(=O)C2(N3CCOCC3)CC2)c1 [Example 134, 4-(cyclopropyloxy)-N-[6-(2-fluorophenyl)pyridin-3-yl]-3-({[1-(morpholin-4-yl)cyclopropyl]carbonyl}amino)benzamide]",,,0.031 µM,12 µM,5.2 µM,0.0166 µM,,,,,
"O=C(Nc1nnc(-c2ccccc2)s1)c1ccc(OC2CC2)c(NC(=O)C2(N3CCOCC3)CC2)c1 [Example 159, 4-(cyclopropyloxy)-3-({[1-(morpholin-4-yl)cyclopropyl]carbonyl}amino)-N-(5-phenyl-1,3,4-thiadiazol-2-yl)benzamide]",,,0.054 µM,≥ 50 µM,≥ 50 µM,0.0414 µM,,,,,
